Structures can show the parent of a compound that is named as a salt. Where two headings read alike, the source gives them in different places. *1 amine or outer side, *2 acyl side, *3 side chain or, on linkers, in order; H or OH if unused. Where a SMILES comes first, the peptide text is derived from it. Bridges are numbered along the chain shown (N, C = ends). Roman numbers before positions name the chains, in order. [ ]: non-standard residue; d: D form. Actinocin(9to1) = Cc1c2oc3c(C)ccc(C(=O)[*:1])c3nc-2c(C(=O)[*:2])c(N)c1=O; NMeV = CN[C@H](C(=O)O)C(C)C; Sar = CNCC(=O)O
Tested on: NRG1-ERBB4 signaling
Assay: Nrg1-ERBB4-PIK3R1 split TEV co-culture compound screen of the NIH Clinical Collection
Type: cell-based, human
[1] = compounds at 10 μM, 24 h, PC12 split TEV assay cells co-cultured with Nrg1-expressing PC12 cells, analysed with cellHTS2
[2] = compound screen of the NIH Clinical Collection, sheet raw data NCC-003, compounds ranked by Z-score
[3] = NIH Clinical Collection NCC-003 raw data, compounds ranked by Z-score, 'flagged' given instead of a Z-score

NS(=O)(=O)c1cc2c(cc1Cl)N=CNS2(=O)=O [Chlorothiazide, reference compound]
Z-SCORE [1]: 0.42

Oc1c(Cl)cc(Cl)c2cccnc12 [Chloroxine, reference compound]
Z-SCORE [1]: flagged

CN(C)CCC(c1ccc(Cl)cc1)c1ccccn1 (stereo not drawn) [Chlorpheniramine]
Z-SCORE [2]: -0.07

CCCNC(=O)NS(=O)(=O)c1ccc(Cl)cc1 [Chlorpropamide, reference compound]
Z-SCORE [1]: -0.07

NS(=O)(=O)c1cc(C2(O)NC(=O)c3ccccc32)ccc1Cl (stereo not drawn) [Chlorthalidone, reference compound]
Z-SCORE [1]: 0.87

CN/C(=N/CCSCc1nc[nH]c1C)NC#N [Cimetidine, reference compound]
Z-SCORE [1]: -0.45

CN(C)CCCSc1ccccc1NC(=O)/C=C/c1ccccc1 [Cinanserin]
Z-SCORE [2]: -0.77

COc1cc(N)c(Cl)cc1C(=O)NC1CCN(CCCOc2ccc(F)cc2)CC1OC (stereo not drawn) [Cisapride]
Z-SCORE [2]: -0.15

CN(C)CCCC1(c2ccc(F)cc2)OCc2cc(C#N)ccc21 (stereo not drawn) [Citalopram hydrobromide]
Z-SCORE [2]: -0.45

CN(C)CCCC1(c2ccc(F)cc2)OCc2cc(C#N)ccc21 (stereo not drawn) [Citalopram, reference compound]
Z-SCORE [1]: -1.5

NC(=NCc1ccc(Cl)cc1)SCCCc1cnc[nH]1 [Clobenpropit]
Z-SCORE [2]: -0.9

CCN(CC)CCOc1ccc(C(=C(Cl)c2ccccc2)c2ccccc2)cc1 [Clomid, reference compound]
Z-SCORE [1]: -1.33

CN1CCN(C2=Nc3cc(Cl)ccc3Nc3ccccc32)CC1 [Clozapine, reference compound]
Z-SCORE [1]: -0.31

CN1[C@@H]2CC[C@H]1C[C@@H](OC(c1ccccc1)c1ccccc1)C2.CS(=O)(=O)O [Cogentin Mesylate, reference compound]
Z-SCORE [1]: -2.36

O=C(O)c1cc(=O)c2c(OCC(O)COc3cccc4oc(C(=O)O)cc(=O)c34)cccc2o1 [Cromolyn Sodium, reference compound]
Z-SCORE [1]: 1.88

CN1CCC(=C2c3ccccc3C=Cc3ccccc32)CC1 [Cyproheptadine hydrochloride]
Z-SCORE [2]: 0.2

O=P1(N(CCCl)CCCl)NCCCO1 (stereo not drawn) [Cytoxan, reference compound]
Z-SCORE: -0.97

N[C@@H]1CON=C1O [D-CYCLOSERINE, reference compound]
Z-SCORE [2]: 2.86 | Z-SCORE [1]: -0.66

Cc1c2oc3c(C)ccc(C(=O)N[C@@H]4C(=O)N[C@H](C(C)C)C(=O)N5CCC[C@H]5C(=O)N(C)CC(=O)N(C)[C@@H](C(C)C)C(=O)O[C@@H]4C)c3nc-2c(C(=O)N[C@@H]2C(=O)N[C@H](C(C)C)C(=O)N3CCC[C@H]3C(=O)N(C)CC(=O)N(C)[C@@H](C(C)C)C(=O)O[C@@H]2C)c(N)c1=O [DACTINOMYCIN] (I: T[dV]P[Sar][NMeV] / II: T[dV]P[Sar][NMeV]; ester I:1-I:C, II:1-II:C; linker I:N-II:N via Actinocin(9to1))
Z-SCORE [3]: flagged

C#C[C@]1(O)CC[C@H]2[C@@H]3CCC4=Cc5oncc5C[C@]4(C)[C@H]3CC[C@@]21C [DANAZOL, reference compound]
Z-SCORE [1]: -0.3

COc1cccc2c1C(=O)c1c(O)c3c(c(O)c1C2=O)C[C@@](O)(C(C)=O)C[C@@H]3O[C@H]1C[C@H](N)[C@H](O)[C@H](C)O1 [DAUNORUBICIN HYDROCHLORIDE, reference compound]
Z-SCORE [1]: flagged

C[C@H](CCC(=O)O)[C@H]1CC[C@H]2[C@@H]3C(=O)C[C@@H]4CC(=O)CC[C@]4(C)[C@H]3CC(=O)[C@]12C [DEHYDROCHOLIC ACID]
Z-SCORE [2]: -0.51

C[C@]12CC[C@H](O)CC1=CC[C@@H]1[C@@H]2CC[C@]2(C)C(=O)CC[C@@H]12 [DEHYDROEPIANDROSTERONE]
Z-SCORE [2]: 0.4

CC(=O)OCC(=O)[C@@]1(O)CC[C@H]2[C@@H]3C[C@H](C)C4=CC(=O)C=C[C@]4(C)[C@H]3[C@@H](O)C[C@@]21C [DEPO-MEDROL, reference compound]
Z-SCORE [1]: 0.97

C#CCN(C)[C@H](C)Cc1ccccc1.Cl [DEPRENALIN, reference compound]
Z-SCORE [1]: 0.31

C[C@@H]1C[C@H]2[C@@H]3CCC4=CC(=O)C=C[C@]4(C)[C@@]3(F)[C@@H](O)C[C@]2(C)[C@H]1C(=O)CO [DESOXIMETASONE]
Z-SCORE [2]: -0.5

CN(C)CC[C@@H](c1ccc(Br)cc1)c1ccccn1 [DEXBROMPHENIRAMINE MALEATE]
Z-SCORE [2]: -0.74

CN(C)CC[C@@H](c1ccc(Cl)cc1)c1ccccn1 [DEXCHLORPHENIRAMINE MALEATE]
Z-SCORE [2]: -0.67

CC1=NS(=O)(=O)c2cc(Cl)ccc2N1 [DIAZOXIDE]
Z-SCORE [2]: 2.34

O=C(O)C(Cl)Cl [DICHLOROACETIC ACID]
Z-SCORE [2]: 1.9

Cc1onc(-c2c(Cl)cccc2Cl)c1C(=O)N[C@@H]1C(=O)N2[C@@H]1SC(C)(C)[C@@H]2C(=O)O [DICLOXACILLIN SODIUM, reference compound]
Z-SCORE [1]: 0.28

C[C@H]1O[C@@H](O[C@H]2[C@@H](O)C[C@H](O[C@H]3[C@@H](O)C[C@H](O[C@H]4CC[C@@]5(C)[C@H](CC[C@@H]6[C@@H]5C[C@@H](O)[C@]5(C)[C@@H](C7=CC(=O)OC7)CC[C@]65O)C4)O[C@@H]3C)O[C@@H]2C)C[C@H](O)[C@@H]1O [DIGOXIN, reference compound]
Z-SCORE [1]: -1.73

CN(C)CCOC(c1ccccc1)c1ccccc1 [DIPHENHYDRAMINE HYDROCHLORIDE]
Z-SCORE [2]: 1.01

CCOC(=O)C1(c2ccccc2)CCN(CCC(C#N)(c2ccccc2)c2ccccc2)CC1 [DIPHENOXYLATE]
Z-SCORE [2]: -0.45

OCCN(CCO)c1nc(N2CCCCC2)c2nc(N(CCO)CCO)nc(N3CCCCC3)c2n1 [DIPYRIDAMOLE, reference compound]
Z-SCORE [1]: -1.46

CC(=O)O[C@@]12CO[C@@H]1C[C@H](O)[C@@]1(C)C(=O)[C@H](O)C3=C(C)[C@@H](OC(=O)[C@H](O)[C@@H](NC(=O)OC(C)(C)C)c4ccccc4)C[C@@](O)([C@@H](OC(=O)c4ccccc4)[C@H]21)C3(C)C [DOCETAXEL]
Z-SCORE [3]: -1.13

CN(CCOc1ccc(NS(C)(=O)=O)cc1)CCc1ccc(NS(C)(=O)=O)cc1 [DOFETILIDE]
Z-SCORE [2]: 0

CS(=O)(=O)O.O=C(O[C@H]1C[C@H]2CC3C[C@@H](C1)N2CC3=O)c1c[nH]c2ccccc12 [DOLASETRON MESYLATE]
Z-SCORE [2]: 0.23

CCN1CC(CCN2CCOCC2)C(c2ccccc2)(c2ccccc2)C1=O.Cl (stereo not drawn) [DOXAPRAM HYDROCHLORIDE]
Z-SCORE [2]: -0.46

CN(C)CCC=C1c2ccccc2COc2ccccc21 [DOXEPIN HYDROCHLORIDE, reference compound]
Z-SCORE [1]: 1.31

COc1cccc2c1C(=O)c1c(O)c3c(c(O)c1C2=O)C[C@@](O)(C(=O)CO)C[C@@H]3O[C@H]1C[C@H](N)[C@H](O)[C@H](C)O1 [DOXORUBICIN HYDROCHLORIDE]
Z-SCORE [3]: flagged

C[C@H]1c2cccc(O)c2C(=O)C2=C(O)[C@]3(O)C(=O)C(C(N)=O)=C(O)[C@@H](N(C)C)[C@@H]3[C@@H](O)[C@@H]21 [DOXYCYCLINE, reference compound]
Z-SCORE [1]: -0.93

O=C(CCCN1CC=C(n2c(=O)[nH]c3ccccc32)CC1)c1ccc(F)cc1 [DROPERIDOL]
Z-SCORE [2]: -0.96

CNCC[C@H](Oc1cccc2ccccc12)c1cccs1 [DULOXETINE HCl]
Z-SCORE: -0.22

O=C1CN(/N=C/c2ccc(-c3ccc([N+](=O)[O-])cc3)o2)C(=O)[N-]1.[Na+] [Dantrolene sodium salt, reference compound]
Z-SCORE [1]: 0.78

Nc1ccc(S(=O)(=O)c2ccc(N)cc2)cc1 [Dapsone, reference compound]
Z-SCORE [1]: -0.6

CN(C)[C@@H]1C(O)=C(C(N)=O)C(=O)[C@@]2(O)C(O)=C3C(=O)c4c(O)ccc(Cl)c4[C@@H](O)[C@H]3C[C@@H]12 [Demeclocycline, reference compound]
Z-SCORE [1]: 0.1

C[C@@H]1C[C@H]2[C@@H]3CCC4=CC(=O)C=C[C@]4(C)[C@@]3(F)[C@@H](O)C[C@]2(C)[C@@]1(O)C(=O)CO [Dexamethasone, reference compound]
Z-SCORE [1]: 0.88

CN1C(=O)CN=C(c2ccccc2)c2cc(Cl)ccc21 [Diazepam]
Z-SCORE: -1.79

CC(COc1ccccc1)N(CCCl)Cc1ccccc1 (stereo not drawn) [Dibenzyline, reference compound]
Z-SCORE [1]: -1.18

CCN(CC)CCOC(=O)C1(C2CCCCC2)CCCCC1 [Dicyclomine hydrochloride, reference compound]
Z-SCORE [1]: -2.03

O=C(O)c1cc(-c2ccc(F)cc2F)ccc1O [Diflunisal, reference compound]
Z-SCORE [1]: -0.6

O=C1NC(=O)C(c2ccccc2)(c2ccccc2)N1 [Dilantin, reference compound]
Z-SCORE [1]: 0.95

Cc1ccccc1C(OCCN(C)C)c1ccccc1 (stereo not drawn) [Disipal, reference compound]
Z-SCORE [1]: 0.42

COc1cc2c(cc1OC)C(=O)C(CC1CCN(Cc3ccccc3)CC1)C2 (stereo not drawn) [Donepezil]
Z-SCORE [2]: 0

COc1cc2nc(N3CCN(C(=O)C4COc5ccccc5O4)CC3)nc(N)c2cc1OC (stereo not drawn) [Doxazosin, reference compound]
Z-SCORE [1]: 0.51

CN(C)CCC=C1c2ccccc2COc2ccccc21 [Doxepin]
Z-SCORE [2]: 2.16

CN(C)CCOC(C)(c1ccccc1)c1ccccn1.O=C(O)CCC(=O)O (stereo not drawn) [Doxylamine succinate salt]
Z-SCORE [2]: 0.36

CNCC[C@H](Oc1cccc2ccccc12)c1cccs1 [Duloxetine]
Z-SCORE: -0.82

Cc1cccc(CN2CCN(C(c3ccccc3)c3ccc(Cl)cc3)CC2)c1.Cl (stereo not drawn) [Duremesin, reference compound]
Z-SCORE [1]: -0.76

CC(COc1ccccc1)NC(C)C(O)c1ccc(O)cc1 (stereo not drawn) [Duvadilan, reference compound]
Z-SCORE [1]: -1.36

O=c1c2ccccc2[se]n1-c1ccccc1 [EBSELEN]
Z-SCORE [2]: -0.25

CC[N+](C)(C)c1cccc(O)c1 [EDROPHONIUM CHLORIDE, reference compound]
Z-SCORE [1]: -1.53

O=C1Nc2ccc(Cl)cc2[C@@](C#CC2CC2)(C(F)(F)F)O1 [EFAVIRENZ]
Z-SCORE [3]: flagged

CCOC(=O)[C@H](CCc1ccccc1)N[C@@H](C)C(=O)N1CCC[C@H]1C(=O)O [ENALAPRIL MALEATE, reference compound]
Z-SCORE [1]: 0
